Experimental data from patent US12673945B2, “3-((8-((1H-pyrazol-4-yl)amino)imidazo[1,2-a]pyridin-3-yl)ethinyl)-n-phenylbenzamide derivative, method for preparing same, and pharmaceutical composition containing same as active ingredient for prevention or treatment of cancer” (DAEGU-GYEONGBUK MEDICAL INNOVATION FOUNDATION, priority 2020, dated 2026).

Legend:
Assay in all cases: scanMAX Kinase panel (DiscoverX)
Format in all cases: binding
[1] = target: T1, ABL1(E255K)-phosphorylated (Homo sapiens, UniProt P00519, E255K); settings: read-out: % Cont @ 1 uM
T1 construct: purchased DiscoverX
Outline: (§1)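 Kinase was treated with compound at a single 1 μM concentration (DMSO vehicle), and activity relative to controls was normalised as % control.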

[2] = target: T2, ABL1(F317I)-phosphorylated (Homo sapiens, UniProt P00519, F317I); settings: read-out: % Cont @ 1 uM
T2 construct: purchased DiscoverX
Outline: as §1

[3] = target: T3, ABL1(Q252H)-phosphorylated (Homo sapiens, UniProt P00519, Q252H); settings: read-out: % Cont @ 1 uM
T3 construct: purchased DiscoverX
Outline: as §1

ABL2 = target: T4, ABL2 (Homo sapiens, UniProt P42684); settings: read-out: % Cont @ 1 uM
T4 construct: purchased DiscoverX scanMAX Kinase panel
Outline: as §1

AURKB = target: T5, AURKB (Homo sapiens, UniProt Q96GD4); settings: read-out: % Cont @ 1 uM
T5 construct: purchased DiscoverX scanMAX Kinase panel
Outline: as §1

BLK = target: T6, BLK (Homo sapiens, UniProt P51451); settings: read-out: % Cont @ 1 uM
T6 construct: purchased DiscoverX scanMAX Kinase panel
Outline: as §1

CDKL2 = target: T7, CDKL2 (Homo sapiens, UniProt Q92772); settings: read-out: % Cont @ 1 uM
T7 construct: purchased DiscoverX scanMAX Kinase panel
Outline: as §1

CSF1R = target: T8, CSF1R (Homo sapiens, UniProt P07333); settings: read-out: % Cont @ 1 uM
T8 construct: purchased DiscoverX scanMAX Kinase panel
Outline: as §1

DDR1 = target: T9, DDR1 (Homo sapiens, UniProt Q08345); settings: read-out: % Cont @ 1 uM
T9 construct: purchased DiscoverX scanMAX Kinase panel
Outline: as §1

EGFR(S752-I759del) = target: T10, EGFR(S752-I759del) (Homo sapiens, UniProt P00533, DEL752-759)
T10 construct: purchased DiscoverX scanMAX Kinase panel
Outline: as §1

EPHA3 = target: T11, EPHA3 (Homo sapiens, UniProt P29320); settings: read-out: % Cont @ 1 uM
T11 construct: purchased DiscoverX scanMAX Kinase panel
Outline: as §1

EPHA6 = target: T12, EPHA6 (Homo sapiens, UniProt Q9UF33); settings: read-out: % Cont @ 1 uM
T12 construct: purchased DiscoverX scanMAX Kinase panel
Outline: as §1

EPHA7 = target: T13, EPHA7 (Homo sapiens, UniProt Q15375); settings: read-out: % Cont @ 1 uM
T13 construct: purchased DiscoverX scanMAX Kinase panel
Outline: as §1

EPHB1 = target: T14, EPHB1 (Homo sapiens, UniProt P54762); settings: read-out: % Cont @ 1 uM
T14 construct: purchased DiscoverX scanMAX Kinase panel
Outline: as §1

FES = target: T15, FES (Homo sapiens, UniProt P07332); settings: read-out: % Cont @ 1 uM
T15 construct: purchased DiscoverX scanMAX Kinase panel
Outline: as §1

FGFR2 = target: T16, FGFR2 (Homo sapiens, UniProt P21802); settings: read-out: % Cont @ 1 uM
T16 construct: purchased DiscoverX scanMAX Kinase panel
Outline: as §1

FGFR3(G697C) = target: T17, FGFR3(G697C) (Homo sapiens, UniProt P22607, G697C); settings: read-out: % Cont @ 1 uM
T17 construct: purchased DiscoverX scanMAX Kinase panel
Outline: as §1

FLT1 = target: T18, FLT1 (Homo sapiens, UniProt P17948); settings: read-out: % Cont @ 1 uM
T18 construct: purchased DiscoverX scanMAX Kinase panel
T18 sequence (P17948 27-1338): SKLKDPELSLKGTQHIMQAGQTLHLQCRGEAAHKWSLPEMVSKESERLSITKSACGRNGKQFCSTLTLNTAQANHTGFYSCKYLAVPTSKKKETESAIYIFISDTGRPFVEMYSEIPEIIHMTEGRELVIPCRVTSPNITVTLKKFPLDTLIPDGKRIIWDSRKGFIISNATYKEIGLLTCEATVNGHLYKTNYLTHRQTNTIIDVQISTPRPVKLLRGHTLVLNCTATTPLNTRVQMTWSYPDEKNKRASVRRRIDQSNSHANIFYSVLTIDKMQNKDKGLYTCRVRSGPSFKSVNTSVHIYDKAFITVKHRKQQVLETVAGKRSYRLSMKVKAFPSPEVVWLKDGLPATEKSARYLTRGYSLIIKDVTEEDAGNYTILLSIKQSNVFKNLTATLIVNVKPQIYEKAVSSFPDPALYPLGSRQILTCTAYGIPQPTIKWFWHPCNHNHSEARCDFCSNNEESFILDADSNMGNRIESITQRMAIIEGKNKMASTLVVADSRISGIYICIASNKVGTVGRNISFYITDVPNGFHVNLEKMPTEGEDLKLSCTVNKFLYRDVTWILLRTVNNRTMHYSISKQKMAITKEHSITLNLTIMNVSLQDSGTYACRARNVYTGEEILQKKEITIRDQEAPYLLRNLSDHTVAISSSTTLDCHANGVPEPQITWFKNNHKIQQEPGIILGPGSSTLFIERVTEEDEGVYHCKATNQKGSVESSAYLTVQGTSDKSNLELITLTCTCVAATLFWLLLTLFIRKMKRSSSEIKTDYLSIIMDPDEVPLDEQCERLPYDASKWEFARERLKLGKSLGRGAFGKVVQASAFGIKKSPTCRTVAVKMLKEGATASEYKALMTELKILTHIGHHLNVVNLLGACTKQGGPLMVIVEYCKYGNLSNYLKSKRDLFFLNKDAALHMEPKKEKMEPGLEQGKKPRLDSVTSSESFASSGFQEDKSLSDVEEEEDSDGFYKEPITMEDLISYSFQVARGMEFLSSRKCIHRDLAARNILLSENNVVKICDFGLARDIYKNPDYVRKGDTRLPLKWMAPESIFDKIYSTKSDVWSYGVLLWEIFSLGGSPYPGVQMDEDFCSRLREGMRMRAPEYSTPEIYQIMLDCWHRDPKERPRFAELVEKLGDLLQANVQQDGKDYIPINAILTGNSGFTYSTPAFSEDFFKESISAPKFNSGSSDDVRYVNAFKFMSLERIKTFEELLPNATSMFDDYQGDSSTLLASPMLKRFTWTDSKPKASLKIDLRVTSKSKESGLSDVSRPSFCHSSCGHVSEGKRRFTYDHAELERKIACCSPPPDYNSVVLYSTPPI
Outline: as §1

FLT3(D835V) = target: T19, FLT3(D835V) (Homo sapiens, UniProt P36888, D835V); settings: read-out: % Cont @ 1 uM
T19 construct: purchased DiscoverX scanMAX Kinase panel
Outline: as §1

FLT3(R834Q) = target: T20, FLT3(R834Q) (Homo sapiens, UniProt P36888, R834Q); settings: read-out: % Cont @ 1 uM
T20 construct: purchased DiscoverX scanMAX Kinase panel
Outline: as §1

FLT4 = target: T21, FLT4 (Homo sapiens, UniProt P35916); settings: read-out: % Cont @ 1 uM
T21 construct: purchased DiscoverX scanMAX Kinase panel
Outline: as §1

GAK = target: T22, GAK (Homo sapiens, UniProt O14976); settings: read-out: % Cont @ 1 uM
T22 construct: purchased DiscoverX scanMAX Kinase panel
Outline: as §1

HCK = target: T23, HCK (Homo sapiens, UniProt P08631); settings: read-out: % Cont @ 1 uM
T23 construct: purchased DiscoverX scanMAX Kinase panel
Outline: as §1

KIT(L576P) = target: T24, KIT(L576P) (Homo sapiens, UniProt P10721, L576P); settings: read-out: % Cont @ 1 uM
T24 construct: purchased DiscoverX scanMAX Kinase panel
T24 sequence (P10721 26-976 L576P): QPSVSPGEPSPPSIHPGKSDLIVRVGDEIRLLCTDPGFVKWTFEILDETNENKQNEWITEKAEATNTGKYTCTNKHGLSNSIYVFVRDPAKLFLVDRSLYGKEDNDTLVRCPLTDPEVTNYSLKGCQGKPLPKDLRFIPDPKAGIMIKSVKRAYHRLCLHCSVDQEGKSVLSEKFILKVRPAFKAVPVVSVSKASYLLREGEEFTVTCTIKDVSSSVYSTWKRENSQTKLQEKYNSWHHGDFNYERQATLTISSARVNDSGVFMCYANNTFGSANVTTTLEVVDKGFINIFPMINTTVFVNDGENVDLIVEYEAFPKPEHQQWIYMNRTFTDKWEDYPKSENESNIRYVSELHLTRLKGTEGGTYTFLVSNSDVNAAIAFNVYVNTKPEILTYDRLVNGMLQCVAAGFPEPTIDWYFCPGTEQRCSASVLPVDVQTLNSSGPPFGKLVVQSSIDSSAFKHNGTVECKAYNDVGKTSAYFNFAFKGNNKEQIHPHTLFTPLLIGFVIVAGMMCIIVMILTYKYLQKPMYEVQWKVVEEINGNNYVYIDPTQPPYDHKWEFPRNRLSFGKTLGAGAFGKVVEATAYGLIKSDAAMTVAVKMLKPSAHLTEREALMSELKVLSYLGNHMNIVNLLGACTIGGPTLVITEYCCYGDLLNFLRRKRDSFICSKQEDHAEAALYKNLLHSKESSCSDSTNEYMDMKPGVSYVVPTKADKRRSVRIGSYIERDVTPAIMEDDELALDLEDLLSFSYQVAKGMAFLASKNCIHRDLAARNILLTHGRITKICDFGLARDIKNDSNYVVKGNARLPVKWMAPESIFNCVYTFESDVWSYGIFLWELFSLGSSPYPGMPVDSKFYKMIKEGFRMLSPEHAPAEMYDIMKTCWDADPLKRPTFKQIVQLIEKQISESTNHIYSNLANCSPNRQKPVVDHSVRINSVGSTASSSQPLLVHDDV
Outline: as §1

KIT(V559D) = target: T25, KIT(V559D) (Homo sapiens, UniProt P10721, V559D); settings: read-out: % Cont @ 1 uM
T25 construct: purchased DiscoverX scanMAX Kinase panel
T25 sequence (P10721 26-976 V559D): as the sequence (P10721 26-976 L576P) above, with V534D, P551L counted along it
Outline: as §1

KIT(V559D, T670I) = target: T26, KIT(V559D, T670I) (Homo sapiens, UniProt P10721, T670I/V559D); settings: read-out: % Cont @ 1 uM
T26 construct: purchased DiscoverX scanMAX Kinase panel
T26 sequence (P10721 26-976 V559D/T670I): as the sequence (P10721 26-976 L576P) above, with V534D, P551L, T645I counted along it
Outline: as §1

LIMK1 = target: T27, LIMK1 (Homo sapiens, UniProt P53667); settings: read-out: % Cont @ 1 uM
T27 construct: purchased DiscoverX scanMAX Kinase panel
T27 sequence (P53667 whole entry): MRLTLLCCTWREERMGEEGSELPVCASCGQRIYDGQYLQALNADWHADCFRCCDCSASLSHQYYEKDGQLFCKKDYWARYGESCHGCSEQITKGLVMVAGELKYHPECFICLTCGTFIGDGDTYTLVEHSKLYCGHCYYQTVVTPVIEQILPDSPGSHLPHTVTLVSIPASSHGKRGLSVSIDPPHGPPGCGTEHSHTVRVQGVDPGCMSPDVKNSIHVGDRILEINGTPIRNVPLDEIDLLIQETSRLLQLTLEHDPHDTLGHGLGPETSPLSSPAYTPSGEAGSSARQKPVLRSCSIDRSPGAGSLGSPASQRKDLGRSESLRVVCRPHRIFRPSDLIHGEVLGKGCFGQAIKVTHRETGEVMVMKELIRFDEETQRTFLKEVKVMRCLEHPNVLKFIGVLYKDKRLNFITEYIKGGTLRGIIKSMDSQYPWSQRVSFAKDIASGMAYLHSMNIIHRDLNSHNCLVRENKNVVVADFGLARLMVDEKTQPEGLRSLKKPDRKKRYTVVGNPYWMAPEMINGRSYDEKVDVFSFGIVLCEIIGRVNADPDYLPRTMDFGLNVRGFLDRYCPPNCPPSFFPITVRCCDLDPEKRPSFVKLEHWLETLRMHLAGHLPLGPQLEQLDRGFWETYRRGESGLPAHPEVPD
Outline: as §1

MAP4K5 = target: T28, MAP4K5 (Homo sapiens, UniProt Q9Y4K4); settings: read-out: % Cont @ 1 uM
T28 construct: purchased DiscoverX scanMAX Kinase panel
T28 sequence (Q9Y4K4 whole entry): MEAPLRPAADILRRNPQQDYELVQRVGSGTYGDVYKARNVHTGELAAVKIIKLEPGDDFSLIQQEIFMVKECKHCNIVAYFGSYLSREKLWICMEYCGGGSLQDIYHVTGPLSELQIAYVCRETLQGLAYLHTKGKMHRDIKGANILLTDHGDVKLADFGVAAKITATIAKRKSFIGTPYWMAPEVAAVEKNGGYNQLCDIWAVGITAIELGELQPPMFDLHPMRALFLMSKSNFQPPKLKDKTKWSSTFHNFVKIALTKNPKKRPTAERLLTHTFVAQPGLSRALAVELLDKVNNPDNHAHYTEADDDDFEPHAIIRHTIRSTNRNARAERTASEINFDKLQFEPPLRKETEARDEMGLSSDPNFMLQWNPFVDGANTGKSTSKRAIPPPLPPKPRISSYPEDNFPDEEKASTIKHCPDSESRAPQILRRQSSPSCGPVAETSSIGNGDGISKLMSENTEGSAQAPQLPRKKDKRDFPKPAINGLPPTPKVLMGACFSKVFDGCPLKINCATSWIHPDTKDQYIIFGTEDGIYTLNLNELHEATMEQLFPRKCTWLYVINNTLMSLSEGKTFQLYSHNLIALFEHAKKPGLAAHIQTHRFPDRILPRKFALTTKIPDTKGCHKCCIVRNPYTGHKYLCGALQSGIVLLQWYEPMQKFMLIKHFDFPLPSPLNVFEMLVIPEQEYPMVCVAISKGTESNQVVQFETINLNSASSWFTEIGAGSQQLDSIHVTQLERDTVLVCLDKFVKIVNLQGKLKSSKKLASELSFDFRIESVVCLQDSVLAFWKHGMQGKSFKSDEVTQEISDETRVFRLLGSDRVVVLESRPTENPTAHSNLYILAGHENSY
Outline: as §1

MLK1 = target: T29, MLK1 (Homo sapiens, UniProt P80192); settings: read-out: % Cont @ 1 uM
T29 construct: purchased DiscoverX scanMAX Kinase panel
Outline: as §1

MST3 = target: T30, MST3 (Homo sapiens, UniProt Q9Y6E0)
T30 construct: purchased DiscoverX scanMAX Kinase panel
Outline: as §1

NEK1 = target: T31, NEK1 (Homo sapiens, UniProt Q96PY6); settings: read-out: % Cont @ 1 uM
T31 construct: purchased DiscoverX scanMAX Kinase panel
Outline: as §1

PAK3 = target: T32, PAK3 (Homo sapiens, UniProt O75914); settings: read-out: % Cont @ 1 uM
T32 construct: purchased DiscoverX scanMAX Kinase panel
Outline: as §1

PDGFRA = target: T33, PDGFRA (Homo sapiens, UniProt P16234); settings: read-out: % Cont @ 1 uM
T33 construct: purchased DiscoverX scanMAX Kinase panel
Outline: as §1

PDGFRB = target: T34, PDGFRB (Homo sapiens, UniProt P09619); settings: read-out: % Cont @ 1 uM
T34 construct: purchased DiscoverX scanMAX Kinase panel
Outline: as §1

SRMS = target: T35, SRMS (Homo sapiens, UniProt Q9H3Y6); settings: read-out: % Cont @ 1 uM
T35 construct: purchased DiscoverX scanMAX Kinase panel
Outline: as §1

STK33 = target: T36, STK33 (Homo sapiens, UniProt Q9BYT3); settings: read-out: % Cont @ 1 uM
T36 construct: purchased DiscoverX scanMAX Kinase panel
Outline: as §1

TAK1 = target: T37, TAK1 (Homo sapiens, UniProt O43318); settings: read-out: % Cont @ 1 uM
T37 construct: purchased DiscoverX scanMAX Kinase panel
Outline: as §1

TIE1 = target: T38, TIE1 (Homo sapiens, UniProt P35590); settings: read-out: % Cont @ 1 uM
T38 construct: purchased DiscoverX scanMAX Kinase panel
T38 sequence (P35590 22-1138): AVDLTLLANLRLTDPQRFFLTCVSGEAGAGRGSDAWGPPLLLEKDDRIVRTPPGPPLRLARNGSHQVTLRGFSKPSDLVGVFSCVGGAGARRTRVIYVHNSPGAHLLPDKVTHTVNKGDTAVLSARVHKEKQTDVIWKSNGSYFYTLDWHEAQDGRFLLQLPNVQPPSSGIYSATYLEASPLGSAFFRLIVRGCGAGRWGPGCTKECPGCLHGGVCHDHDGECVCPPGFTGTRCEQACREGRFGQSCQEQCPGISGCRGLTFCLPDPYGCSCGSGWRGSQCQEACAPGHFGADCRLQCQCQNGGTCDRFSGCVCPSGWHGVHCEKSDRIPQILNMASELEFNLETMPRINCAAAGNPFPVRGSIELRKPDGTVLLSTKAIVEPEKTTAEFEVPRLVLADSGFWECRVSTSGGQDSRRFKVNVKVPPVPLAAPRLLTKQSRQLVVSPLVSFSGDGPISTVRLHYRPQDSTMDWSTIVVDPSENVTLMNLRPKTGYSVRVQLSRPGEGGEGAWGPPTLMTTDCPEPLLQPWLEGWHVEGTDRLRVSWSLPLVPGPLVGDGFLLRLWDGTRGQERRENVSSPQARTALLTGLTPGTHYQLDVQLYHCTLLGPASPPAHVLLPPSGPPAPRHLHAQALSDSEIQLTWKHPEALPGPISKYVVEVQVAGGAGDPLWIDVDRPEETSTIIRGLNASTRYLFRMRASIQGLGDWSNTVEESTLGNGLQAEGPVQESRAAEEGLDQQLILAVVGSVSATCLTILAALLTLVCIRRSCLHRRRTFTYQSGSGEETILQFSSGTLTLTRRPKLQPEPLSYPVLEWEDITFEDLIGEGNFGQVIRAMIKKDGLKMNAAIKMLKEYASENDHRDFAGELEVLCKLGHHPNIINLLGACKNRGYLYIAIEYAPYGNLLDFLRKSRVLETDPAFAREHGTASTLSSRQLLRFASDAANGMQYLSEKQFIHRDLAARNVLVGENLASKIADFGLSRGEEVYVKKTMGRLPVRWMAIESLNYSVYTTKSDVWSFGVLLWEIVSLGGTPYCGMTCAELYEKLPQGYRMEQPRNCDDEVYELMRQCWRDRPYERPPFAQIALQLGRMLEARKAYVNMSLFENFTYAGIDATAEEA
Outline: as §1

p38-beta = target: T39, p38-beta (Homo sapiens, UniProt Q15759); settings: read-out: % Cont @ 1 uM
T39 construct: purchased DiscoverX scanMAX Kinase panel
Outline: as §1

| Compound | remaining binding at 1 µM [1] [%] | remaining binding at 1 µM [2] [%] | remaining binding at 1 µM [3] [%] | remaining binding at 1 µM (ABL2) [%] | remaining binding at 1 µM (AURKB) [%] | remaining binding at 1 µM (BLK) [%] | remaining binding at 1 µM (CDKL2) [%] | remaining binding at 1 µM (CSF1R) [%] | remaining binding at 1 µM (DDR1) [%] | % Cont @ 1 uM (EGFR(S752-I759del)) [%] | remaining binding at 1 µM (EPHA3) [%] | remaining binding at 1 µM (EPHA6) [%] | remaining binding at 1 µM (EPHA7) [%] | remaining binding at 1 µM (EPHB1) [%] | remaining binding at 1 µM (FES) [%] | remaining binding at 1 µM (FGFR2) [%] | remaining binding at 1 µM (FGFR3(G697C)) [%] | remaining binding at 1 µM (FLT1) [%] | remaining binding at 1 µM (FLT3(D835V)) [%] | remaining binding at 1 µM (FLT3(R834Q)) [%] | other results |
| --- | --- | --- | --- | --- | --- | --- | --- | --- | --- | --- | --- | --- | --- | --- | --- | --- | --- | --- | --- | --- | --- |
| Cc1cn(-c2cc(NC(=O)c3cc(C#Cc4cnc5c(Nc6cnn(C)c6)cccn45)c(C)cc3F)cc(C(C)(C)C#N)c2)cn1 [Example 1, N-(3-(2-cyanopropane-2-yl)-5-(4-methyl-1H-imidazol-1-yl)phenyl)-2-fluoro-4-methyl-5-((8-((1-methyl-1H-pyrazol-4-yl)amino)imidazo[1,2-a]pyridin-3-yl)ethynyl)benzamide] | 0.9 | 9.2 | 1.3 | 0.4 | 26 | 0.05 | 0.7 | 0.2 | 0.15 | 5.7 | 4 | 16 | 16 | 17 | 1.6 | 30 | 7.5 | 1.4 | 0.25 | 0.9 | remaining binding at 1 µM (FLT4): 0.35%; remaining binding at 1 µM (GAK): 25%; remaining binding at 1 µM (HCK): 0.2%; remaining binding at 1 µM (KIT(L576P)): 1.4%; remaining binding at 1 µM (KIT(V559D)): 0%; remaining binding at 1 µM (KIT(V559D, T670I)): 1.2%; percent of control binding at 1 µM (LIMK1): 33%; remaining binding at 1 µM (MAP4K5): 0.95%; percent of control binding at 1 µM (MLK1): 18%; % Cont @ 1 uM (MST3): 20%; remaining binding at 1 µM (NEK1): 34%; remaining binding at 1 µM (PAK3): 7.1%; percent of control binding at 1 µM (PDGFRA): 2%; remaining binding at 1 µM (PDGFRB): 0%; remaining binding at 1 µM (SRMS): 1.2%; remaining binding at 1 µM (STK33): 12%; remaining binding at 1 µM (TAK1): 4.3%; remaining binding at 1 µM (TIE1): 3.5%; remaining binding at 1 µM (p38-beta): 0.85% |
| Cc1cn(-c2cc(NC(=O)c3cc(C#Cc4cnc5c(Nc6cnn(C)c6)cccn45)c(C)cc3F)cc(C(F)(F)F)c2)cn1 [Example 4, 2-fluoro-4-methyl-N-(3-(4-methyl-1H-imidazol-1-yl)-5-(trifluoromethyl)phenyl)-5-((8-((1-methyl-1H-pyrazol-4-yl)amino)imidazo[1,2-a]pyridin-3-yl)ethynyl)benzamide] | 12 | 22 | 14 | 2.9 | 57 | 0.4 | 14 | 2.5 | 0 | 30 | 8.4 | 25 | 63 | 26 | 55 | 61 | 90 | 11 | 25 | 34 | remaining binding at 1 µM (FLT4): 4.4%; remaining binding at 1 µM (GAK): 80%; remaining binding at 1 µM (HCK): 0.65%; remaining binding at 1 µM (KIT(L576P)): 2.8%; remaining binding at 1 µM (KIT(V559D)): 0.25%; remaining binding at 1 µM (KIT(V559D, T670I)): 12%; percent of control binding at 1 µM (LIMK1): 75%; remaining binding at 1 µM (MAP4K5): 38%; percent of control binding at 1 µM (MLK1): 76%; % Cont @ 1 uM (MST3): 70%; remaining binding at 1 µM (NEK1): 100%; remaining binding at 1 µM (PAK3): 10%; percent of control binding at 1 µM (PDGFRA): 11%; remaining binding at 1 µM (PDGFRB): 0.05%; remaining binding at 1 µM (SRMS): 54%; remaining binding at 1 µM (STK33): 76%; remaining binding at 1 µM (TAK1): 50%; remaining binding at 1 µM (TIE1): 4.1%; remaining binding at 1 µM (p38-beta): 15% |
